Reference: publication PMC6342301, “Potent, multi-target serine protease inhibition achieved by a simplified β-sheet motif” (PLoS ONE, 2019)
Where two headings read alike, the source gives them in different places. One block for each molecule: values may come before it. Bridge positions count the residues as written; N and C are the ends. Peptide text beside a SMILES is read from it.

Key:
KLK7 [1] = target: T1, KLK7 (Homo sapiens, UniProt P49862); experiment: Competitive inhibition assay against KLK7 (KHLY-pNA substrate); assay type: biochemical; details: for Ki: KLK7, substrate KHLY-pNA, Morrison equation
T1 construct: made in house; host or cells: Pichia pastoris strain X-33
From the text: KLK7 was produced as a zymogen in the yeast Pichia pastoris strain X-33 previously developed and optimised by Dr Maria Brattsand [29]. Expressed proteins were purified using cation exchange chromatography on UnoSphere S (Biorad) and activated by treatment with enterokinase (10 units per milligram purified zymogen; Thermo Fisher Scientific) before a final polishing step to remove enterokinase, again using cation exchange chromatography. The active site concentration of purified KLK7 was determined using the serpin α1- proteinase inhibitor (A1PI) which binds to KLK7 with 1:1 stoichiometry. Briefly, a fixed amount of KLK7 was pre-incubated with a range of inhibitor concentrations at room temperature for 20 min before adding a constant concentration of substrate KHLY-pNA. The residual KLK7 activities were measured as the increase of absorbance at 405 nm for 10 min (ΔOD405/min) and plotted against respective inhibitor concentrations. The active site concentration was determined by linear regression to find the concentration of inhibitor required for complete KLK7 inhibition (ΔOD405/min drops to zero), which is equal to the concentration of KLK7 active site.
Inhibitory property of SFTI inhibitors was assessed by determining the inhibition constant (Ki) in competitive inhibition assays against a range of proteases as described before. Serial dilutions of the inhibitor were pre-incubated with a fix concentration of protease in assay buffer (0.1 M Tris pH 8.0, 0.1 M NaCl and 0.05% Triton X-100) at room temperature for 10 min. Assays were initiated by addition of respective peptide-pNA substrates. Absorbance changes at 405 nm were monitored using a micro plate spectrophotometer (Bio-rad Benchmark Plus) over 5 min. Inhibition constants were calculated in GraphPad Prism 5.01 (La Jolla California, USA) by non-linear regression using the Morrison equation for tight binding inhibitors.

Trypsin = details: substrate Ac-YASR-pNA; cited from earlier work
KLK14 = details: substrate Ac-YANR-pNA; cited from earlier work
KLK5 = details: substrate Ac-YRSR-pNA; cited from earlier work
KLK7 [2] = target: T1, KLK7; set-up: method as in PMID 26393374; details: substrate KHLY-pNA; cited from earlier work
KLK7 [3] = target: T1, KLK7; details: cited from earlier work

T1 sequence (P49862 30-253): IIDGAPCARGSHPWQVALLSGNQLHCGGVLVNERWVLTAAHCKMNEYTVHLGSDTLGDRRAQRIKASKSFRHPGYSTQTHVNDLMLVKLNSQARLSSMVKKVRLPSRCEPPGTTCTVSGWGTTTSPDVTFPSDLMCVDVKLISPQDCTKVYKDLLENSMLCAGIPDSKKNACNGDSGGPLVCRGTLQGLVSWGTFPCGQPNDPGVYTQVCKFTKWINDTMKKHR

Molecule: CC[C@H](C)[C@@H]1NC(=O)[C@@H]2CCCN2C(=O)[C@@H]2CCCN2C(=O)[C@H]([C@@H](C)CC)NC(=O)[C@H](CO)NC(=O)[C@H](CCCCN)NC(=O)[C@H]([C@@H](C)O)NC(=O)[C@@H]2CSSC[C@H](NC1=O)C(=O)N[C@@H](Cc1ccccc1)C(=O)N1CCC[C@H]1C(=O)N[C@@H](CC(=O)O)C(=O)NCC(=O)N[C@@H](CCCNC(=N)N)C(=O)N2 [SFTI-1, Sunflower trypsin inhibitor-1, reference compound]
- Ki (KLK7 [1]): 4800 ± 200 nM

B1: recombinant LEKTI fragment comprising domains 8–11: recombinant LEKTI fragment comprising domains 8–11 (protein)
chain: EAAKEICSEFRDQVRNGTLICTREHNPVRGPDGKMHGNKCAMCASVFKLEEEEKKNDKEEKGKVEAEKVKREAVQELCSEYRHYVRNGRLPCTRENDPIEGLDGKIHGNTCSMCEAFFQQEAKEKERAEPRAKVKREAEKETCDEFRRLLQNGKLFCTRENDPVRGPDGKTHGNKCAMCKAVFQKENEERKRKEEEDQRNAAGHGSSGGGGGNTQDECAEYREQMKNGRLSCTRESDPVRDADGKSYNNQCTMCKAKLEREAERKNEY
modifications: intradomain disulfides; check residue is from a known polymorphic site (R711Q), not from the pape
- Ki (KLK7 [3]): 34.8 nM

Further lines, with some results ahead:

- Ki (KLK7 [1]): 220 ± 6 nM
Molecule: CC[C@H](C)[C@@H]1NC(=O)[C@@H]2CCCN2C(=O)[C@@H]2CCCN2C(=O)[C@H]([C@@H](C)CC)NC(=O)[C@H](CO)NC(=O)[C@H](CCCNC(=N)N)NC(=O)[C@H]([C@@H](C)O)NC(=O)[C@@H]2CSSC[C@H](NC1=O)C(=O)N[C@@H](Cc1ccccc1)C(=O)N1CCC[C@H]1C(=O)N[C@@H](CC(=O)O)C(=O)NCC(=O)N[C@@H](CCCNC(=N)N)C(=O)N2 [SFTI-RCTR] (cyclo(CFPDGRCTRSIPPI); disulfide 1-7)

- fold increased inhibitory potency against KLK7 compared to SFTI-1 (KLK7 [1]; ratio of Ki values, relative to SFTI-1): 286 fold
- fold increase in KLK7 inhibitory potency compared to SFTI-RCTR (KLK7 [1]; ratio of Ki values, relative to SFTI-RCTR): 13 fold
Molecule: SFTI-TCTR: SFTI variant GTCTRSIPPICNPN with four mutations R2T (P4), K5R (P1), F12N, D14N in the cyclic backbone (head-to-tail cyclic backbone)
- Ki (Trypsin): 0.7 ± 0.07 nM
- Ki (KLK14): 0.4 ± 0.02 nM
- Ki (KLK5): 2 ± 0.1 nM
- Ki (KLK7 [2]): 17 ± 0.4 nM
